# Reference: US20050137177A1, “Ester combination local anesthetic” (priority 2003, published 2005)
# Experiments:
# sciatic nerve [1] = experiment: Rat sciatic nerve block, onset and offset (withdrawal to pinch, proprioception, motor strength); assay type: in vivo; conditions: for duration of sensory block (in words) / onset of sensory block (in words) / duration of full sensory block (until it started to decay): 2% 2-chloroprocaine; for duration of sensory block (in words) / onset of sensory block (in words): 0.22% or 0.5% tetracaine
# Description: The onset and offset of sciatic nerve block from lidocaine, bupivacaine, tetracaine, and 2-chloroprocaine were examined in studies conducted in rats. Three different modalities were tested: (1) pain (e.g., withdrawal to pinch); (2) proprioception (e.g., the ability to place the paw squarely on the table); and (3) motor strength (e.g., the downward pressure the paw can exert on a scale). In each case, the same volume of local anesthetic agent was tested. The modality of interest was withdrawal to pinch. Each local anesthetic was tested on 5 rats of nearly identical size and age.
# sciatic nerve [2] = conditions: rat, in vivo
# Excerpt: Sections were also taken across the sciatic nerve five days after injection with local anesthetic(s) and examined for gross pathological injury.
# rat peroneal nerve = conditions: in vivo; for peroneal total axonal counts (± SEM): 5 days
# Excerpt: Sections of rat peroneal nerve were taken for evaluation with light microscopy five days post injection with local anesthetic(s). Specifically, each nerve was sectioned and total axonal counts were taken to assess any axonal loss. Five nerves were examined for each treatment condition. The peroneal axonal counts five days after control (saline), bupivacaine, and 2.3% 2-chloroprocaine/0.17% tetracaine injections were 2063±30 (SEM), 1959±81, and 1993±45, respectively.
# [3] = between 1990 and 1997; Medline database; cited from earlier work
# [4] = 0.17% tetracaine + 2.3% 2-chloroprocaine
# [5] = 2.0% lidocaine, 0.17% tetracaine + 2.3% 2-chloroprocaine
# [6] = withdrawal to pinch, 2.0% lidocaine, 0.5% bupivacaine, 0.17% tetracaine + 2.3% 2-chloroprocaine
smiles,measurement,setting,value
CCN(CC)CCOC(=O)c1ccc(N)cc1Cl [2-chloroprocaine],duration of sensory block (in words),sciatic nerve [1]; [4],substantially shorter without co-administration of tetracaine
same,onset of sensory block (in words),sciatic nerve [1]; [5],slower than with co-administration of tetracaine
same,duration of full sensory block (until it started to decay),sciatic nerve [1]; [6],about 30 minutes
CCCCN1CCCCC1C(=O)Nc1c(C)cccc1C (stereo not drawn) [bupivacaine],light microscopic appearance of sciatic nerve at site of injection,sciatic nerve [2],indistinguishable from saline controls
same,onset of sensory block relative to 2.0% lidocaine,sciatic nerve [1]; 0.5% bupivacaine vs 2.0% lidocaine,4 times slower
same,time to achieve full sensory block (onset),"sciatic nerve [1]; withdrawal to pinch, 0.5% bupivacaine, 0.17% tetracaine + 2.3% 2-chloroprocaine, same volume, 5 rats",8 min
same,duration of full sensory block (until it started to decay),sciatic nerve [1]; [6],60 min
same,total axonal counts compared with saline controls (in words),rat peroneal nerve,no significant difference
same,peroneal total axonal counts (± SEM),rat peroneal nerve,1959±81
same,"deaths (e.g., heart arrest, myocardial infarction, accidental overdose)",[3],102 deaths
CCN(CC)CC(=O)Nc1c(C)cccc1C [lidocaine],light microscopic appearance of sciatic nerve at site of injection,sciatic nerve [2],marked edema and neural damage
same,onset of sensory block (in words),sciatic nerve [1]; [5],nearly immediate
same,onset of block at the first time point tested,"sciatic nerve [1]; 2.0% lidocaine, 2 minutes after injection, sensory block, 5 rats",100%
same,duration of full sensory block (until it started to decay),sciatic nerve [1]; [6],about 45 minutes
same,total axonal counts compared with saline controls (in words),rat peroneal nerve,significantly reduced
same,peroneal total axonal counts (± SEM),rat peroneal nerve,1602±167
CCCCNc1ccc(C(=O)OCCN(C)C)cc1 [tetracaine],sensory block achieved,sciatic nerve [1]; 0.22% tetracaine,less than 60%
same,sensory block achieved,sciatic nerve [1]; 0.5% tetracaine,less than 60%
same,duration of sensory block (in words),sciatic nerve [1]; [4],dissipated rapidly
same,onset of sensory block (in words),sciatic nerve [1]; [5],slow onset
same,motor blockade,"sciatic nerve [1]; tetracaine studies, all animals, data not shown","complete, prolonged motor blockade"
